Test results reported in EP1388586A2, “Identification of broadly reactive DR restricted epitopes” (priority 1998, dated 1999).
Like-named read-outs stand apart in the source and are kept apart here. Square brackets hold non-standard residues; d marks the D form. Ends that are not written are not given here. Peptide text beside a SMILES is read from it.

How the values were obtained:
[1] = tested on: panel of purified HLA DR molecules; assay type: binding, human;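 further: competitive inhibition of radiolabeled probe peptide binding to purified HLA DR molecules, with inhibitory potency of unlabeled peptides taken as an approximation of affinity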
Description: (§1) Class II peptide-binding assays. […] These assays were chosen as to be representative of the most common DR alleles.
(§2) Radiolabeled peptides were iodinated using the chloramine-T method. […] In appropriate stoichiometric conditions, the IC50 of an unlabeled test peptide to the purified DR is a reasonable approximation of the affinity of interaction (Kd). Peptides were tested in two to four completely independent experiments. […] Final detergent concentration in the incubation mixture was 0.05% Nonidet P-40. Assays were performed at pH 7.0 with the exception of DR3, which was performed at pH 4.5, and DRw53, which was performed at pH 5.0.
(§3) All subsequent inhibition and direct binding assays were the performed using these class II concentrations.

[2] = biological target: T1, DRB1*1101 (DR5w11) (Homo sapiens, UniProt P01903+P01911, A100R/A169T/A87E/I96F/K41T/L162R/M171V/P40S/Q125H/Q178H/Q39Y/Q99D/R42S/S66Y/T262R/V115G/W38E); assay: Class II peptide-binding assay, DR5w11;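 further: competition by unlabeled test peptide against iodinated probe peptide binding to affinity-purified HLA-DR, class II amount titrated beforehand, half-maximal inhibitory concentration read as approximate Kd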
T1 construct: used as sources of human HLA class II molecules; endogenous in cells; host or cells: SWEIG (EBV-transformed homozygous B cell line)

[3] = biological target: T2, DRB5*0101 (DR2w2a) (Homo sapiens, UniProt P01903+Q30154); assay: Class II peptide-binding assay, DR2w2a (DR2w2B2);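 further: competitive binding assay: unlabeled peptide inhibiting binding of a radiolabeled probe peptide to purified DR molecules at pH 7.0, IC50 approximating Kd, lower means stronger binding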
T2 construct: used as sources of human HLA class II molecules; endogenous in cells; host or cells: GM3107 (EBV-transformed homozygous B cell line)

[4] = biological target: T3, DRB10404 (DR4w14) (Homo sapiens, UniProt P01903+P01911, A100R/A169T/F76Y/I96L/K127E/L162R/M171V/N62H/P40V/Q125Y/R42H/S133A/S149N/S66Y/V209L/W38E); assay: Class II peptide-binding assay, DR4w14;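 further: unlabeled peptides compete with a radiolabeled probe for binding to affinity-purified HLA-DR, neutral pH, class II amount titrated to bind a small fraction of label, IC50 approximates Kd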
T3 construct: used as sources of human HLA class II molecules; endogenous in cells; host or cells: BIN40 (EBV-transformed homozygous B cell line)

[5] = biological target: T4, DRB1*0101 (DR1) (Homo sapiens, UniProt P01903+P01911, A100R/D57E/F55L/F60I/F76Y/I96L/L162R/M171V/P40L/Q125E/R42F/V115G/Y59C); assay: Class II peptide-binding assay, DR1;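 further: competition assay: unlabeled test peptides inhibit binding of a radiolabeled probe peptide to purified DR, with half-maximal inhibition taken as an approximate dissociation constant Kd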
T4 construct: used as sources of human HLA class II molecules; endogenous in cells; host or cells: LG2 (EBV-transformed homozygous B cell line)
Description: as §1, §2, §3

[6] = biological target: T5, DRB1*0301 (DR3w17) (Homo sapiens, UniProt P01903+P01911, A100K/A102G/A103R/A169T/F55Y/I96L/K41T/L162R/M171V/P40S/Q125H/Q178H/Q39Y/R42S/S66N/T106N/T262R/W38E/Y61H); assay: Class II peptide-binding assay, DR3 (pH 4.5);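 further: unlabeled peptide competing with a radiolabeled probe peptide for binding to affinity-purified HLA-DR3, IC50 regarded as an approximation of Kd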
T5 construct: used as sources of human HLA class II molecules; endogenous in cells; host or cells: MAT (EBV-transformed homozygous B cell line)

[7] = biological target: T6, DRB1*0401 (DR4w4) (Homo sapiens, UniProt P01903+P01911, A100K/A169T/F76Y/I96L/K127E/L162R/M171V/N62H/P40V/Q125Y/R42H/S133A/S149N/S66Y/V115G/V209L/W38E); assay: Class II peptide-binding assay, DR4w4;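 further: unlabeled test peptides compete with a radiolabeled probe peptide for binding to affinity-purified HLA-DR, with DR amount titrated to capture a small fraction of label, IC50 approximating Kd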
T6 construct: used as sources of human HLA class II molecules; endogenous in cells; host or cells: PREISS (EBV-transformed homozygous B cell line)

[8] = biological target: DRB1*0701 (DR7) (Homo sapiens, UniProt P01903+P01911, A100R/A102G/A103Q/D57E/D86V/E43K/F76Y/K127E/L162R/M171V/P40G/Q125H/Q99D/R33Q/R42Y/R54Q/S133A/S66F/T210M/V115G/Y107V/Y59L/Y89S); assay: Class II peptide-binding assay, DR7;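 further: unlabeled peptides compete with an iodinated probe peptide for binding to affinity-purified HLA-DR at neutral pH, DR amount titered to bind a small tracer fraction, IC50 approximating Kd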
[9] = Table V B) Correct Predictions, 12 DR molecules listed

T5 sequence (P01903 26-254, other chains not shown): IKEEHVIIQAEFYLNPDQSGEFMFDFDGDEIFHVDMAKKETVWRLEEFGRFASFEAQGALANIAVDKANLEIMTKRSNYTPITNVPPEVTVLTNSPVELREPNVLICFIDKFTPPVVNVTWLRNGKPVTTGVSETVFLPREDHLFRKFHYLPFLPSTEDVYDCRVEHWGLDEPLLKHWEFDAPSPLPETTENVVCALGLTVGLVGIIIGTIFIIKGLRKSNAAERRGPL
T1 sequence (P01903 26-254, other chains not shown): as above

Molecule: CC(C)[C@H](NC(=O)[C@H](Cc1ccccc1)NC(=O)[C@@H](N)CCCCN)C(=O)N[C@H](C(=O)N1CCC[C@H]1C(=O)NCC(=O)N[C@@H](C)C(=O)N[C@@H](C)C(=O)N[C@H](C(=O)N1CCC[C@H]1C(=O)N[C@@H](Cc1ccc(O)cc1)C(=O)N[C@@H](C)C(=O)NCC(=O)N[C@@H](CCC(=O)O)C(=O)N1CCC[C@H]1C(=O)O)[C@@H](C)O)C(C)C [Peptide F107.17]
- Total Alleles Bound [1, 9]: 4

Molecule: CC(C)C[C@H](NC(=O)CNC(=O)[C@H](C)N)C(=O)N[C@@H](CC(C)C)C(=O)NCC(=O)N[C@@H](CC(N)=O)C(=O)N[C@H](C(=O)N[C@@H](CO)C(=O)N[C@H](C(=O)N[C@H](C(=O)N[C@@H](CC(C)C)C(=O)N[C@@H](CC(C)C)C(=O)NCC(=O)NCC(=O)N[C@H](C(=O)O)C(C)C)C(C)C)[C@@H](C)O)C(C)C [Peptide 1188.13]
- Total Alleles Bound [1]: 4

Molecule: CC(C)C[C@H](NC(=O)CN)C(=O)N[C@@H](C)C(=O)N[C@@H](Cc1ccc(O)cc1)C(=O)N[C@@H](CCCCN)C(=O)N[C@@H](Cc1ccccc1)C(=O)N[C@H](C(=O)N[C@H](C(=O)N1CCC[C@H]1C(=O)NCC(=O)N[C@@H](C)C(=O)N[C@@H](C)C(=O)N[C@H](C(=O)N1CCC[C@H]1C(=O)N[C@@H](Cc1ccc(O)cc1)C(=O)O)[C@@H](C)O)C(C)C)C(C)C [Peptide 1188.32]
- total of DR molecules bound [1]: nine

Molecule: CC[C@H](C)[C@H](NC(=O)[C@H](CC(C)C)NC(=O)[C@H](CC(=O)O)NC(=O)[C@@H](NC(=O)[C@H](Cc1ccccc1)NC(=O)[C@H](Cc1ccc(O)cc1)NC(=O)[C@H](Cc1c[nH]cn1)NC(=O)[C@H](Cc1c[nH]cn1)NC(=O)[C@@H](N)[C@@H](C)O)C(C)C)C(=O)NCC(=O)NCC(=O)N[C@@H](C)C(=O)N[C@@H](CCSC)C(=O)N[C@@H](CC(C)C)C(=O)N[C@@H](CO)C(=O)N[C@@H](CC(C)C)C(=O)O [Peptide 1136.47]
- Total Alleles Bound [1]: 4

Molecule: CC[C@H](C)[C@H](NC(=O)[C@H](CO)NC(=O)[C@H](CO)NC(=O)[C@H](CC(N)=O)NC(=O)[C@@H](NC(=O)[C@@H](NC(=O)[C@H](CC(N)=O)NC(=O)[C@H](Cc1ccccc1)NC(=O)[C@@H](N)C(C)C)C(C)C)C(C)C)C(=O)NCC(=O)N[C@@H](CC(C)C)C(=O)N[C@H](C(=O)N[C@@H](CCSC)C(=O)N[C@H](C(=O)N[C@@H](CC(C)C)C(=O)O)C(C)C)[C@@H](C)CC [Peptide F107.23]
- Total Alleles Bound [1, 9]: 4

Molecule: CC[C@H](C)[C@H](NC(=O)[C@H](CC(=O)O)NC(=O)[C@H](CC(C)C)NC(=O)[C@@H](NC(=O)CNC(=O)[C@@H](NC(=O)[C@@H](NC(=O)[C@@H](NC(=O)[C@@H](NC(=O)[C@H](C)NC(=O)[C@H](CC(C)C)NC(=O)[C@@H](NC(=O)[C@H](CC(N)=O)NC(=O)[C@H](CO)NC(=O)[C@H](CC(C)C)NC(=O)[C@@H](N)CC(N)=O)C(C)C)[C@@H](C)O)[C@@H](C)CC)[C@@H](C)O)[C@@H](C)O)C(C)C)C(=O)O [Peptide 1136.24]
- Total Alleles Bound [1]: 4

Molecule: CC[C@H](C)[C@H](NC(=O)[C@@H](NC(=O)[C@H](CC(N)=O)NC(=O)[C@H](CCCCN)NC(=O)[C@@H](N)C(C)C)C(C)C)C(=O)NCC(=O)N1CCC[C@H]1C(=O)N[C@@H](Cc1ccccc1)C(=O)N[C@@H](CCSC)C(=O)N[C@@H](CCCCN)C(=O)N[C@@H](C)C(=O)N[C@H](C(=O)N[C@@H](CS)C(=O)N[C@H](C(=O)N[C@@H](CCC(=O)O)C(=O)O)C(C)C)C(C)C [Peptide 27.417]
- Total Alleles Bound [1]: 6

Molecule: CC(C)C[C@H](NC(=O)[C@H](Cc1c[nH]c2ccccc12)NC(=O)[C@@H](NC(=O)[C@H](Cc1ccccc1)NC(=O)[C@@H](NC(=O)[C@@H]1CCCN1C(=O)[C@H](CC(C)C)NC(=O)[C@H](C)NC(=O)[C@@H]1CCCN1C(=O)[C@H](CC(C)C)NC(=O)[C@H](Cc1ccccc1)NC(=O)[C@H](Cc1ccccc1)NC(=O)[C@H](CCC(N)=O)NC(=O)[C@H](CO)NC(=O)[C@@H](NC(=O)[C@@H](N)CC(C)C)[C@@H](C)O)C(C)C)[C@@H](C)O)C(=O)O [Peptide 1136.16]
- Total Alleles Bound [1]: 7

Molecule: CC(C)C[C@H](NC(=O)CNC(=O)[C@H](C)NC(=O)[C@H](CC(C)C)NC(=O)[C@@H](NC(=O)[C@H](CO)NC(=O)[C@@H](NC(=O)[C@H](C)NC(=O)[C@H](CC(C)C)NC(=O)[C@H](CCCCN)NC(=O)[C@H](Cc1ccc(O)cc1)NC(=O)[C@@H](N)CCCCN)[C@@H](C)O)C(C)C)C(=O)N[C@@H](CC(C)C)C(=O)NCC(=O)N[C@@H](CC(N)=O)C(=O)O [Peptide F107.09]
- Total Alleles Bound [1, 9]: 9
- total of DR molecules bound ([1]; correct predictions, out of the 11 DR molecules tested): nine

Molecule: CC(C)[C@H](NC(=O)[C@H](CO)NC(=O)[C@@H](NC(=O)[C@H](C)NC(=O)[C@H](CO)NC(=O)[C@H](CO)NC(=O)[C@H](C)NC(=O)[C@H](C)NC(=O)[C@H](Cc1ccc(O)cc1)NC(=O)[C@@H](NC(=O)[C@H](CO)NC(=O)CNC(=O)[C@H](CCC(N)=O)NC(=O)[C@@H]1CCCN1C(=O)[C@@H](N)CCC(=O)O)[C@@H](C)O)[C@@H](C)O)C(=O)N[C@@H](CC(=O)O)C(=O)O [Peptide 1136.71]
- Total Alleles Bound [1]: 5

Molecule: CC[C@H](C)[C@H](NC(=O)[C@H](CC(C)C)NC(=O)[C@H](CCCCN)NC(=O)[C@H](CCSC)NC(=O)[C@H](C)NC(=O)[C@H](CC(C)C)NC(=O)[C@@H]1CCCN1C(=O)[C@@H](NC(=O)[C@H](C)NC(=O)[C@H](Cc1c[nH]cn1)NC(=O)[C@H](CC(N)=O)NC(=O)[C@@H](NC(=O)[C@H](Cc1c[nH]c2ccccc12)NC(=O)[C@H](CC(N)=O)NC(=O)[C@@H](N)Cc1c[nH]cn1)C(C)C)C(C)C)C(=O)O [Peptide 1188.34]
- Total Alleles Bound [1]: 9
- total of DR molecules bound [1]: nine

Molecule: CC[C@H](C)[C@H](NC(=O)[C@H](CO)NC(=O)[C@H](CO)NC(=O)[C@H](CC(N)=O)NC(=O)[C@@H](NC(=O)[C@@H](NC(=O)[C@H](CC(N)=O)NC(=O)[C@H](Cc1ccccc1)NC(=O)[C@@H](NC(=O)[C@H](CO)NC(=O)[C@@H](N)CO)C(C)C)C(C)C)C(C)C)C(=O)NCC(=O)N[C@@H](CC(C)C)C(=O)N[C@H](C(=O)N[C@@H](CCSC)C(=O)O)[C@@H](C)CC [Peptide 27.392]
- Total Alleles Bound [1]: 6

Molecule: KIAKMEKASSVFNVVNS [Peptide 526.01]
- IC50 ([2]; read-out: In IC50 Format DR5w11, Table VIII): 0.0645 µM
- IC50 ([3]; read-out: In IC50 Format DR2w2β2, Table VIII): 3.33 µM
- IC50 ([4]; read-out: In IC50 Format DR4w14, Table VIII): 1.28 µM
- IC50 ([5]; read-out: In IC50 Format DR1, Table VIII): 0.0357 µM
- IC50 ([6]; read-out: In IC50 Format DR3, Table VIII): 130 µM
- IC50 ([7]; read-out: In IC50 Format DR4w4, Table VIII): 0.187 µM
- IC50 ([8]; read-out: In IC50 Format DR7, Table VIII): > 1.25 µM

Molecule: CC(C)C[C@H](NC(=O)[C@@H](NC(=O)[C@H](C)NC(=O)[C@H](C)NC(=O)[C@H](C)NC(=O)[C@H](CCCCN)NC(=O)[C@H](Cc1ccccc1)NC(=O)[C@H](C)NC(=O)[C@@H](C)N)[C@@H](C)O)C(=O)N[C@@H](CCCCN)C(=O)N[C@@H](C)C(=O)N[C@@H](C)C(=O)N[C@H](C)C(N)=O [Peptide 871.08] (H-[dA]AFKAAATLKAA[dA]-NH2)
- IC50 ([2]; read-out: DR5w11 nM, Table VIII, In IC50 Format): 0.009 µM
- IC50 ([3]; read-out: DR2w2B2 nM, Table VIII, In IC50 Format): 0.0039 µM
- IC50 ([4]; read-out: DR4w14 nM, Table VIII, In IC50 Format): 0.01 µM
- IC50 ([5]; read-out: DR1 nM, Table VIII, In IC50 Format): 0.0018 µM
- IC50 ([6]; read-out: DR3 nM, Table VIII, In IC50 Format): 15 µM
- IC50 ([7]; read-out: DR4w4 nM, Table VIII, In IC50 Format): 0.0019 µM
- IC50 ([8]; read-out: DR7 nM, Table VIII, In IC50 Format): 0.111 µM

Molecule: NPVVHFFKNIVTPRTPPPS [Peptide 765.09]
- IC50 ([2]; read-out: DR5w11 nM (In IC50 Format), purified HLA DR5w11): 0.0187 µM
- IC50 ([3]; read-out: DR2w2B2 nM (In IC50 Format), purified HLA DR2w2β2): 0.158 µM
- IC50 ([4]; read-out: DR4w14 nM (In IC50 Format), purified HLA DR4w14): 0.0357 µM
- IC50 ([5]; read-out: DR1 nM (In IC50 Format), purified HLA DR1): 0.0135 µM
- IC50 ([6]; read-out: DR3 nM (In IC50 Format), purified HLA DR3): 50 µM
- IC50 ([7]; read-out: DR4w4 nM (In IC50 Format), purified HLA DR4w4): 0.0074 µM
- IC50 ([8]; read-out: DR7 nM (In IC50 Format), purified HLA DR7): 0.0668 µM
